Measured values as given in patent US11628198B2, “Methods for prevention and treatment of acute renal injury” (Cornell University, priority 2008, dated 2023).
Several values for one entry are separate records, joined by “and”; a condition that tells them apart may be missing. Identical values can stand only once. Marks after values point to notes of the source that are not given here.

Experiments:
Type in all cases: in vivo, rat
[1] = system: contrast induced nephropathy in diabetic animal model; experiment: CIN in diabetic (HFD/STZ) rats with iohexol, Experiment 3; settings: individual rats of Group C
Experimental: In this experiment, 20 SD rats were fed with high fat diet for 6 weeks, followed by the injection with low dose streptozotocin (35 mg/kg). After 15 more weeks, the rats were subjected to contrast induced nephropathy study. In addition, we included a normal control group was included in which 9 rats from the same batch on regular chow diet were subjected to the same protocol.
[…] The creatinine clearance was calculated based on the Scr, Ucr and urinary volume. Samples were analyzed by students t-test and differences were considered significant at p<0.05.

[2] = system: CIN in glycerol-induced rhabdomyolysis animal model; experiment: CIN in glycerol-induced rhabdomyolysis model, Experiment 3
Experimental: SD rats with body weight of 300-400 grams were dehydrated for 24 h followed by i.m. injection with 25% glycerol solution (v/v) at the dose of 10 ml/kg. Twenty-four hours (24 h) later, the rats were grouped and subjected to contrast induced nephropathy study protocol. Eighteen SD rats with body weight of 350-400 g were randomized into three groups with the doses, dosing schedules and study protocol presented in FIG. 27. The effects of SS-31 on ARI can be examined by comparing the renal functions in animals from group A with that from group B.
Renal function: Renal function was assessed by determining serum and urinary creatinine using Jiancheng Cr kit (Nanjing, P.R.C) at baseline, 24 h after dehydration and 48 h post the contrast dye administration. The creatinine clearance was calculated based on the Scr, Ucr and Urinary volume. Urinary protein concentration was determined by Bradford Protein Assay kit (Sigma, U.S.A.). Samples were analyzed by students t-test and differences were considered significant at p<0.05.

[3] = system: ARI caused by ischemia-reperfusion (I/R); experiment: I/R model of ARI: BUN and serum creatinine; settings: 45 min ischemia and 24 h reperfusion; 3 mg/kg 30 min before ischemia and before reperfusion
Experimental: Sprague Dawley rats (250˜300 g) were assigned to four groups: (1) sham surgery group without I/R; (2) I/R+saline vehicle treatment; (3) I/R+SS-20 treatment; (4) I/R+SS-31 treatment. Each experimental group consisted of 8 rats. SS-20 and SS-31 (3 mg/kg, dissolved in saline) were administered to rats 30 min before ischemia and immediately before onset of reperfusion. The control rats were given saline alone on the same schedule.
Rats were anesthetized with a mixture of ketamine (90 mg/kg, i.p.) and xylazine (4 mg/kg, i.p.). The left renal vascular pedicle was occluded temporarily using a micro-clamp for 30 or 45 min. At the end of the ischemic period, reperfusion was established by removing of the clamp. At that time, the contralateral right kidney was removed. After 24 h reperfusion, animals were sacrificed and blood samples were obtained by cardiac puncture. Renal function was determined by blood urea nitrogen (BUN) and serum creatinine (BioAssay Systems DIUR-500 and DICT-500).
BUN and serum creatinine were assayed using kits from BioAssay Systems (DIUR-500 and DICT-500). […] The # indicates p<0.05 from the IR=saline group.

[4] = system: heme oxygenase-1 (HO-1) expression; experiment: 14-day UUO model: RT-PCR for HO-1
Experimental: Sprague-Dawley rats underwent unilateral ureteral ligation (UUO) with 4-0 silk suture through a midline abdominal incision under sterile conditions. Ureteral obstruction was carried out by ligating the left ureter at the end of lower ureter, just above the ureterovesical junction.
SS-31 (1 mg/kg or 3 mg/kg; n=8) was administered intraperitoneally, one day prior to UUO and continuing for 14 days. A separate group of animals was given saline, as a vehicle control (n=16).
Polymerase Chain Reaction Analysis: PCR for heme oxygenase-1 (HO-1) isolated from kidneys was performed as follows. Rat kidneys were harvested and were kept at −80° C. until use. Total RNA was extracted using the Trizol®-Chloroform extraction procedure. mRNA was purified using the Oligotex mRNA extraction kit (Qiagen, Valencia, Calif.) according to manufacturer's instructions. mRNA concentration and purity were determined by measuring absorbance at 260 nm. RT-PCR was preformed using Qiagen One-step PCR kit (Qiagen, Valencia, Calif.). PCR was performed in an automated thermal cycler ThermoHybrid, PX2 with an initial activation step for 15 min at 95° C. followed by 35 cycles of denaturation for 45 s at 94° C., annealing for 30 s at 60° C., extension for 60 s at 72° C. […] Bands on gels were visualized by ethidium bromide staining and analyzed using Image J densitometric analysis software. […]

[5] = system: radiocontrast dye-induced renal failure; experiment: CIN, indomethacin/L-NAME/iothalamate model, Experiment 1
Experimental: Animal Model: A model of radiocontrast dye-induced renal failure as described by Agmon et al. J Clin Invest 94:1069-1075 (1994) in this Example. As in humans, radiocontrast dye is generally non-toxic when administered to animals with normal renal function. However, radiocontrast dye can induce ARI in animals with impaired renal function. In this model, impaired renal function was induced by the administration of indomethacin (10 mg/kg) and L-NAME (10 mg/kg). The animals were divided into 3 groups: • 1. Group (1) control (n=8) • 2. Group (2) Indomethcin/L-NAME (given 15 min apart) followed by iothalamate (AngioConray 6 ml/kg) (n=7) • 3. Group (3) SS-31 (3 mg/kg, ip) was given 15 min prior to administration of indomethacin/L-NAME/iothalamate, and a second dose of SS-31 (3 mg/kg) was repeated immediately after drug exposure (n=9)
Experimental Protocol: Rats were kept in metabolic cages (Nalge Co., Rochester, N.Y.) with free access to tap water and standard rat chow. After a baseline 24-h urinary collection, the rats were anesthetized with a mixture of ketamine (90 mg/kg, i.p.) and xylazine (4 mg/kg, i.p.). The left femoral vein and artery were cannulated and a baseline blood sample drawn (1 ml) for measurement of creatinine level. The animals then received the various drug treatments as indicated above. Iothalamate Meglumine 60% (contrast dye; AngioConray 6 ml/kg) was then injected through the arterial cannula. The left femoral artery was then ligated and the cannula removed. Rats were then returned to the metabolic cages for another 24-h urine collection. […]
Renal Function: Renal function was assessed by determining GFR at baseline and 24 h following dye administration. […] Creatinine clearance was analyzed by measuring plasma (Pcr), urinary creatinine (Ucr) levels (Bioassay Systems; DICT-500) and urine volume.
Renal Histology: Kidneys were fixed in 10% neutral-buffered formalin and embedded in paraffin wax. Three micron sections were stained with hematoxylin-eosin (H&E) and periodic acid-Schiff (PAS) and analyzed by light microscopy by a board certified pathologist.

D-Arg-2′6′Dmt-Lys-Phe-NH2 [SS-31]
Scr T22h ([1]; T22h post dye): 25 μM (2×) and 26 μM and 24 μM and 27 μM and 28 μM and 30 μM and 35 μM and 19 μM | Scr % change T22 ([1]; T22h vs Tb): 0% and 4% and −11% and 9% and −7% and 17% and 20% and 40% and −34% | Scr Tb ([1]; baseline): 25 μM (4×) and 27 μM and 23 μM and 29 μM (2×) and 24 μM | PAS staining of kidney ([2]; glycerin, dye): intact brush borders, normal glomeruli and minimum protein cast in the tubular cells | urine protein level over time ([2]; vs vehicle group): recovered faster than the vehicle group | BUN [3]: 113.8 ± 11.4# mg/dl | serum creatinine [3]: 1.05 ± 0.16# mg/dl | HO-1 expression in the obstructed kidney [4]: decreased HO-1 expression | rats almost completely protected from the effects of the dye ([5]; 3 mg/kg ip before and after drug exposure): Six of nine | PAS staining of kidney ([5]; dye-injected): intact brush borders and normal glomeruli | apoptotic cells/hpf (TUNEL) ([5]; dye-injected): greatly attenuated
